pIC50: −log10 of the molar value. A value given as a limit tells only on which side of the number the result lay.

The source of these data is publication PMC8280112, “Substrate reduction therapy for Krabbe disease and metachromatic leukodystrophy using a novel ceramide galactosyltransferase inhibitor” (Scientific Reports, 2021).

The test system of data set [1] is GalCer and psychosine levels. As to the kind of experiment: Twitcher mouse brain psychosine and galactosylceramide analysis. The note with it: Twitcher mice treated PND3-PND28. In kind it is in vivo. On the procedure:
Mice heterozygous for the Twitcher mutation on the congenic C57BL/6 background were originally purchased from The Jackson Laboratories (stock #000845). Homozygous GALC −/− animals were generated from heterozygous mating. Genotypes were determined on PND1 by PCR as previously described[43],[44]. Animals that died prior to weaning on PND28 were excluded from the study unless otherwise noted. Animals were euthanized when they became moribund as defined by any of the following: losing 25% of their maximal body weight, ataxia severe enough to impair ability to eat or drink, or lack of response to tactile stimulus. Animals used for tissue collection were euthanized by anesthetic overdose and perfused transcardially with PBS for three min. Animals for lifespan analysis were euthanized using CO2 compressed gas delivered at 10–30% chamber volume displacement per min. […] Tissues were harvested and flash frozen in liquid nitrogen.
Galactosylsphingosine (psychosine), and galactosylceramide were measured by tandem mass spectrometry as previously described. Briefly, tissue samples were homogenized in 0.04 M citric acid. Internal controls in 200 µL methanol were added to 50 µL of each sample. […] Galactosylsphingosine and galactosylceramide were detected using MRM on an AB SCIEX 4000QTRAP tandem mass spectrometer using ESI in the positive ion mode. […]

For the next data set, the system named is wild-type mice. The experiment in a line: PND15 wild-type mice tolerability study: clinical signs, wire hang, NCV, histology. In kind it is in vivo, mouse. On the procedure:
Animals were euthanized with CO2 followed by cardiac puncture. Blood was collected via cardiac puncture and split for blood chemistry and hematology.
Beginning on the 2nd week of treatment mice were trained weekly for two weeks. Mice are placed on a wire grid, which is shaken to increase wire grabbing, and then immediately turned over. Mice are timed for their ability to hang from the inverted grid for 1 min. Three trials are performed, up to 1 min each, with a 30 s recovery period between trials. After training, mice were tested weekly and times recorded. The test was done with the grid held 10–12 in. over a box of clean shavings.
Brains were collected after removal of the calvarium, weighted, and halved following the midline. The brain was sectioned in the mid-sagittal plane with half placed in 10% NBF. One sciatic nerve and other organs [heart, lung, liver, spleen, kidney, adrenal glands, stomach, small intestine, large intestine, spinal cord (cervical, thoracic, lumbar), skin, testes, and lymph nodes] were also collected and fixed in 10% NBF. Sections of sciatic nerve were also fixed in 2% PFA, 2% glutaraldehyde, embedded, sectioned and stained with Toluidine blue before scanning. Images were analyzed to determine the G-ratio in the […].
Mice were anesthetized with isoflurane and placed on a thermostatically controlled heating pad to maintain body temperature. The recording electrode was inserted into the plantar muscles and a reference electrode was placed in the skin between toes. A pair of subcutaneous stimulating electrodes were placed distally on both sides of the ankle to stimulate the lateral plantar nerve. For proximal stimulation, the electrodes are moved to the level of the sciatic notch, to the depth of the sciatic nerve. […] Six distally-produced CMAPs were recorded and stored. The procedure was repeated using the proximal electrode pair, and current was increased until a CMAP that matches that produced by distal stimulation was evident. Six proximally-produced CMAPs were recorded and stored. The distance between the sites of stimulation was measured. NCV was later calculated using the two latencies and conduction distance. The H wave was recorded during the recording of the distally stimulated CMAPs.

Data set [2] concerns the target T1, Cerebroside sulfotransferase (CST) (Homo sapiens, UniProt Q99999).
T1 construct: made in house; host or cells: CHO cells stably expressing GAL3ST1 cDNA; MPER lysate
T1 sequence (Q99999 1-423): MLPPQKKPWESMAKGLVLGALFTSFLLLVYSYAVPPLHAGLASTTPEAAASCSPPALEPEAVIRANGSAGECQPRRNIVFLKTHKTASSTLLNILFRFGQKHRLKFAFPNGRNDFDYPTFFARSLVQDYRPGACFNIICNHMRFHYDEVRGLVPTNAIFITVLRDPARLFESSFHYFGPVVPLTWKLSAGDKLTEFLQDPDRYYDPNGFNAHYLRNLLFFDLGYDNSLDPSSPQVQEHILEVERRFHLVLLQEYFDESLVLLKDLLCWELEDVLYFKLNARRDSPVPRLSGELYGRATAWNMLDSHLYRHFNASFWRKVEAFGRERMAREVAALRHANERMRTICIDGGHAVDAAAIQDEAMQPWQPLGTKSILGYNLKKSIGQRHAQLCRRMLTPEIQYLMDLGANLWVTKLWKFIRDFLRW
The experiment in a line: Cerebroside sulfotransferase assay. In kind it is biochemical. Particulars: lysate of CHO cells expressing GAL3ST1. On the procedure:
A 50 µL reaction consisting of 4 µg MPER lysate prepared from CHO cells stably expressing GAL3ST1 cDNA construct (made by BioMarin), 3 µM N-dodecanoyl-NBD-galactosylceramide […] 10 µM PAPS (Sigma) added as substrate (in DMSO/Tween 80), reaction buffer (100 mM Tris/HCl (pH 7.0), 2.5 mM ATP, 20 mM MgCl2), and test compound. The reaction was incubated at 37 ℃ for 2 h then stopped with 100 µL of 3:1 methanol:acetonitrile (containing 500 nM NBD-C6-OH ceramide as an IS). After 1 h shaking, 150 µL 1:2 H2O:ACN was added, mixed, and centrifuged 4000 rpm for 30 min at RT. Supernatant was transferred for LC–MS analysis using the same conditions used for the CGT cellular assay.

[3] abbreviates: wild-type mice, chronic, 2.3 and 5.4 mg/kg.

As for `C[C@H]1N(c2ccc(Br)cc2)C(=O)N(c2ccc(Br)cc2)C1(O)c1cccc(OC(F)(F)F)c1` (stereo partly drawn) [S202], in data set [1], the “non-hydroxy-GalCer in the brain” value is reported as “dose-dependent reduction” and the “psychosine levels in the brain” value is given as “reduced to the same extent as the non-hydroxy-GalCer”. Besides, the testes histopathology entry in the data set on wild-type mice (wild-type mice treated from PND15 to PND70) is given as “germ cell exfoliation with decreased germinal epithelial layers”. The “longer-term (8 week) tolerability” value in the data set with wild-type mice (wild-type mice, IP three times per week from PND15, 2.3 mg/kg and 5.4 mg/kg) is “well tolerated with no mortality, change in weight, or grossly abnormal clinical signs”. For the same compound, the “brain and spinal cord histology (H&E, luxol fast blue/PAS)” value in the data set with wild-type mice (wild-type mice, chronic treatment from PND15) is “widespread vacuolation”. Further, in the data set with wild-type mice (setting [3]), the “sciatic nerve conduction velocity (NCV)” value is “significant and dose-dependent reduction”; the wire hang test result is “impaired performance on the wire hang test”. Further, in the data set with wild-type mice (wild-type mice, chronic, 2.3 and 5.4 mg/kg, some mice), the gait entry is “mild gait abnormality”. Also, in data set [2], the pIC50 (as a rule, the IC50 on a negative log10 scale, so that one unit is a factor of ten) was below 4.30.
